Positions of bridges follow the written chain, without caps; N, C: chain ends. Non-standard residues stand in square brackets, D forms with d. Residues, ends and D or L forms follow the SMILES beside them. 2Nal = N[C@@H](Cc1ccc2ccccc2c1)C(=O)O; Ahp(2) = CCCCC[C@H](N)C(=O)O; NMeNle = CCCC[C@H](NC)C(=O)O; NHexGly = CCCCCCNCC(=O)O; Nle = CCCC[C@H](N)C(=O)O; Orn = NCCC[C@H](N)C(=O)O; Dab = NCC[C@H](N)C(=O)O; Dap = NC[C@H](N)C(=O)O

We go through 10 compounds from patent US20240218022A1, “ANTI-VISTA MACROCYCLIC PEPTIDES AND COMPOSITIONS” (BRISTOL-MYERS SQUIBB COMPANY, priority 2022, published 2024).

In the assay the target is T1, mouse VISTA (mVISTA) (Mus musculus, UniProt Q9D659).
T1 construct: expressed in transfected cells; host or cells: Human embryonic kidney 293T cells
T1 sequence (Q9D659 33-308): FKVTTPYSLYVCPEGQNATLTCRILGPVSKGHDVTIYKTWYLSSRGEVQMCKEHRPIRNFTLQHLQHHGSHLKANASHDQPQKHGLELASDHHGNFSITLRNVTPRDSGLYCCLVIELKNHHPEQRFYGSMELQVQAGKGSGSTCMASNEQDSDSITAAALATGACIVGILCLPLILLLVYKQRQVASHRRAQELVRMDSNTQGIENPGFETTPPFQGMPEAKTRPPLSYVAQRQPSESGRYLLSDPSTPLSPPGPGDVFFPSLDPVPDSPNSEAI
Kind of assay: Cell-Based Binding High-Content Assay For mVISTA (HC CBA mVISTA). Particulars: read-out: HC CBA mVISTA IC50. The method, boiled down: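 Read-out: Alexa 647–streptavidin signal imaged on fixed, Hoechst-stained mVISTA-293T cells, with IC50 taken from a four-parameter logistic curve. Compounds competed with 2 nM biotinylated peptide for 30 min at room temperature, tested under both no-wash and wash (1 h compound, media exchange, 1 h) formats.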
For the compound `CCCCCCN1CC(=O)N[C@@H](Cc2ccc(O)cc2)C(=O)N[C@@H](CCCC)C(=O)N[C@@H](CC(N)=O)C(=O)N[C@@H](CCCNC(=N)N)C(=O)N(C)[C@@H](CCCC)C(=O)N[C@@H](CCCCC)C(=O)N2CCC[C@H]2C(=O)N[C@@H](C(C)C)C(=O)N[C@@H](CC(=O)O)C(=O)N[C@H](C(=O)N[C@@H](CCCN)C(=O)N[C@@H](CCC(N)=O)C(=O)O)CSCC(=O)N[C@@H](Cc2ccccc2)C(=O)N[C@@H](Cc2c[nH]c3ccccc23)C(=O)N[C@@H](CC(=O)O)C1=O` [compound 1130] ({CH2CO}-FWD[NHexGly]Y[Nle]NR[NMeNle][Ahp(2)]PVDC[Orn]Q-OH; thioether N-14), the IC50 (usually the concentration at which inhibition is half-maximal) worked out at 17.5 nM.

Consider `CCCCCCN1CC(=O)N[C@@H](Cc2ccc(O)cc2)C(=O)N[C@@H](CCCC)C(=O)N[C@@H](CC(N)=O)C(=O)N[C@@H](CCCNC(=N)N)C(=O)N(C)[C@@H](CCCC)C(=O)N[C@@H](CCCCC)C(=O)N2CCC[C@H]2C(=O)N[C@@H](C(C)C)C(=O)N[C@@H](CC(=O)O)C(=O)N[C@H](C(=O)N[C@@H](CCN)C(=O)N[C@@H](CC(N)=O)C(=O)O)CSCC(=O)N[C@@H](Cc2ccccc2)C(=O)N[C@@H](Cc2c[nH]c3ccccc23)C(=O)N[C@@H](CC(=O)O)C1=O` [compound 1131] ({CH2CO}-FWD[NHexGly]Y[Nle]NR[NMeNle][Ahp(2)]PVDC[Dab]N-OH; thioether N-14), for which the IC50 came to 23.1 nM.

Turning to `CCCCCCN1CC(=O)N[C@@H](Cc2ccc(O)cc2)C(=O)N[C@@H](CCCC)C(=O)N[C@@H](CC(N)=O)C(=O)N[C@@H](CCCNC(=N)N)C(=O)N(C)[C@@H](CCCC)C(=O)N[C@@H](CCCCC)C(=O)N2CCC[C@H]2C(=O)N[C@@H](C(C)C)C(=O)N[C@@H](CC(=O)O)C(=O)N[C@H](C(=O)N[C@@H](CCN)C(=O)N[C@@H](CCC(N)=O)C(=O)O)CSCC(=O)N[C@@H](Cc2ccccc2)C(=O)N[C@@H](Cc2c[nH]c3ccccc23)C(=O)N[C@@H](CC(=O)O)C1=O` [compound 1132] ({CH2CO}-FWD[NHexGly]Y[Nle]NR[NMeNle][Ahp(2)]PVDC[Dab]Q-OH; thioether N-14), the IC50 stood at 36 nM.

Consider `CCCCCCN1CC(=O)N[C@@H](Cc2ccc(O)cc2)C(=O)N[C@@H](CCCC)C(=O)N[C@@H](CC(N)=O)C(=O)N[C@@H](CCCNC(=N)N)C(=O)N(C)[C@@H](CCCC)C(=O)N[C@@H](CCCCC)C(=O)N2CCC[C@H]2C(=O)N[C@@H](C(C)C)C(=O)N[C@@H](CC(=O)O)C(=O)N[C@H](C(=O)N[C@@H](CN)C(=O)N[C@@H](CC(N)=O)C(=O)O)CSCC(=O)N[C@@H](Cc2ccccc2)C(=O)N[C@@H](Cc2c[nH]c3ccccc23)C(=O)N[C@@H](CC(=O)O)C1=O` [compound 1133] ({CH2CO}-FWD[NHexGly]Y[Nle]NR[NMeNle][Ahp(2)]PVDC[Dap]N-OH; thioether N-14), for which the IC50 is 11.5 nM.

Regarding `CCCCCCN1CC(=O)N[C@@H](Cc2ccc(O)cc2)C(=O)N[C@@H](CCCC)C(=O)N[C@@H](CC(N)=O)C(=O)N[C@@H](CCCNC(=N)N)C(=O)N(C)[C@@H](CCCC)C(=O)N[C@@H](CCCCC)C(=O)N2CCC[C@H]2C(=O)N[C@@H](C(C)C)C(=O)N[C@@H](CC(=O)O)C(=O)N[C@H](C(=O)N[C@@H](CCN)C(=O)N[C@@H](CCC(N)=O)C(=O)O)CSCC(=O)N[C@@H](Cc2ccc3ccccc3c2)C(=O)N[C@@H](Cc2c[nH]c3ccccc23)C(=O)N[C@@H](CC(=O)O)C1=O` [compound 1134] ({CH2CO}-[2Nal]WD[NHexGly]Y[Nle]NR[NMeNle][Ahp(2)]PVDC[Dab]Q-OH; thioether N-14), the IC50 was determined as 13.7 nM.

For the compound `CCCCCCN1CC(=O)N[C@@H](Cc2ccc(O)cc2)C(=O)N[C@@H](CCCC)C(=O)N[C@@H](CC(N)=O)C(=O)N[C@@H](CCCNC(=N)N)C(=O)N(C)[C@@H](CCCC)C(=O)N[C@@H](CCCCC)C(=O)N2CCC[C@H]2C(=O)N[C@@H](C(C)C)C(=O)N[C@@H](CC(=O)O)C(=O)N[C@H](C(=O)N[C@@H](CN)C(=O)N[C@@H](CCC(N)=O)C(=O)O)CSCC(=O)N[C@@H](Cc2ccc3ccccc3c2)C(=O)N[C@@H](Cc2c[nH]c3ccccc23)C(=O)N[C@@H](CC(=O)O)C1=O` [compound 1135] ({CH2CO}-[2Nal]WD[NHexGly]Y[Nle]NR[NMeNle][Ahp(2)]PVDC[Dap]Q-OH; thioether N-14), the IC50 came out at 39.1 nM.

With `CCCCCCN1CC(=O)N[C@@H](Cc2ccc(O)cc2)C(=O)N[C@@H](CCCC)C(=O)N[C@@H](CC(N)=O)C(=O)N[C@@H](CCCNC(=N)N)C(=O)N(C)[C@@H](CCCC)C(=O)N[C@@H](CCCCC)C(=O)N2CCC[C@H]2C(=O)N[C@@H](C(C)C)C(=O)N[C@@H](CC(=O)O)C(=O)N[C@H](C(=O)N[C@@H](CN)C(=O)N[C@@H](CC(N)=O)C(=O)O)CSCC(=O)N[C@@H](Cc2ccc3ccccc3c2)C(=O)N[C@@H](Cc2c[nH]c3ccccc23)C(=O)N[C@@H](CC(=O)O)C1=O` [compound 1136] ({CH2CO}-[2Nal]WD[NHexGly]Y[Nle]NR[NMeNle][Ahp(2)]PVDC[Dap]N-OH; thioether N-14), the concentration for half-maximal inhibition (IC50) was found to be 9.5 nM.

With `CCCCCCN1CC(=O)N[C@@H](Cc2ccc(O)cc2)C(=O)N[C@@H](CCCC)C(=O)N[C@@H](CC(N)=O)C(=O)N[C@@H](CCCNC(=N)N)C(=O)N(C)[C@@H](CCCC)C(=O)N[C@@H](CCCCC)C(=O)N2CCC[C@H]2C(=O)N[C@@H](C(C)C)C(=O)N[C@@H](CC(=O)O)C(=O)N[C@H](C(=O)N[C@@H](CCCCN)C(=O)N[C@@H](CCC(N)=O)C(=O)O)CSCC(=O)N[C@@H](Cc2ccc3ccccc3c2)C(=O)N[C@@H](Cc2c[nH]c3ccccc23)C(=O)N[C@@H](CC(=O)O)C1=O` [compound 1137] ({CH2CO}-[2Nal]WD[NHexGly]Y[Nle]NR[NMeNle][Ahp(2)]PVDCKQ-OH; thioether N-14), the half-maximal inhibitory concentration (IC50) was found to be 22.4 nM.

For the compound `CCCCCCN1CC(=O)N[C@@H](Cc2ccc(O)cc2)C(=O)N[C@@H](CCCC)C(=O)N[C@@H](CC(N)=O)C(=O)N[C@@H](CCCNC(=N)N)C(=O)N(C)[C@@H](CCCC)C(=O)N[C@@H](CCCCC)C(=O)N2CCC[C@H]2C(=O)N[C@@H](C(C)C)C(=O)N[C@@H](CC(=O)O)C(=O)N[C@H](C(=O)N[C@@H](CCCN)C(=O)N[C@@H](CC(N)=O)C(=O)O)CSCC(=O)N[C@@H](Cc2ccc3ccccc3c2)C(=O)N[C@@H](Cc2c[nH]c3ccccc23)C(=O)N[C@@H](CC(=O)O)C1=O` [compound 1139] ({CH2CO}-[2Nal]WD[NHexGly]Y[Nle]NR[NMeNle][Ahp(2)]PVDC[Orn]N-OH; thioether N-14), the IC50 was found to be 36.2 nM.

For the compound `CCCCCCN1CC(=O)N[C@@H](Cc2ccc(O)cc2)C(=O)N[C@@H](CCCC)C(=O)N[C@@H](CC(N)=O)C(=O)N[C@@H](CCCNC(=N)N)C(=O)N(C)[C@@H](CCCC)C(=O)N[C@@H](CCCCC)C(=O)N2CCC[C@H]2C(=O)N[C@@H](C(C)C)C(=O)N[C@@H](CC(=O)O)C(=O)N[C@H](C(=O)N[C@@H](CCCN)C(=O)N[C@@H](CCC(N)=O)C(=O)O)CSCC(=O)N[C@@H](Cc2ccc3ccccc3c2)C(=O)N[C@@H](Cc2c[nH]c3ccccc23)C(=O)N[C@@H](CC(=O)O)C1=O` [compound 1140] ({CH2CO}-[2Nal]WD[NHexGly]Y[Nle]NR[NMeNle][Ahp(2)]PVDC[Orn]Q-OH; thioether N-14), the IC50 was determined as 19.1 nM.
